Experimental data taken from patent publication US9376418B2, “Substituted pyridine spleen tyrosine kinase (SYK) inhibitors” (Merck Sharp & Dohme Corp., priority 2012, dated 2016).

These compounds were tested against T1, recombinant human GST-SYK (Homo sapiens, UniProt P43405) (assay: Homogeneous Time-Resolved Fluorescence (HTRF) assay for the recombinant human Syk enzyme). Details: HTRF assay, recombinant human GST-SYK; IC50 given as class symbols; read-out: rhSYK Activity.
T1 construct: purchased Carna Biosciences 08-176
Format: biochemical
Outline: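 GST-hSYK ([…]) was preincubated with inhibitor (0.1% DMSO) for 10 min at room temperature in Tris-HCl pH 7.5 with tween 20 and DTT. Biotinylated peptide (250 nM), Mg (5 mM) and ATP (25 μM) were added for 45 min. The reaction was quenched with EDTA, and phosphotyrosine was read by Eu-antibody/SA-APC HTRF after 30 min.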

Row | Structure (SMILES) | IC50
1 | Cc1cc(Nc2nccc(C(F)(F)F)n2)cc(-c2ccc(N3CCCC4(CCCNC4=O)C3)nc2)c1 (stereo not shown) [Example 7.9, 8-[5-(3-methyl-5-{[4-(trifluoromethyl)pyrimidin-2-yl]amino}phenyl)pyridin-2-yl]-2,8-diazaspiro[5.5]undecan-1-one] | 100 to 1000 nM
2 | Cc1cc(Nc2nccc(C(F)(F)F)n2)cc(-c2ccnc(NC3(CO)CCCC3)c2)c1 [Example 15.50, (1-{[4-(3-methyl-5-{[4-(trifluoromethyl)pyrimidin-2-yl]amino}phenyl)pyridin-2-yl]amino}cyclopentyl)methanol] | < 100 nM
3 | Cc1cc(Nc2nccc(C(F)(F)F)n2)cc(-c2ccnc(NC[C@@H](C)O)c2)c1 [Example 15.52, (2R)-1-{[4-(3-methyl-5-{[4-(trifluoromethyl)pyrimidin-2-yl]amino}phenyl)pyridin-2-yl]amino}propan-2-ol] | < 100 nM
4 | Cc1cc(Nc2nccc(C(F)(F)F)n2)cc(-c2ccc(C3(O)CCC(C(=O)O)C(C)(C)C3)nc2)c1 (stereo not shown) [Example 9.46, 4-hydroxy-2,2-dimethyl-4-[5-(3-methyl-5-{[4-(trifluoromethyl)pyrimidin-2-yl]amino}phenyl)pyridin-2-yl]cyclohexanecarboxylic acid] | < 100 nM
5 | CC(=O)C(C)(O)c1cncc(-c2cc(C)cc(Nc3nccc(C(F)(F)F)n3)c2)c1 (stereo not shown) [Example 9.72, 3-hydroxy-3-[5-(3-methyl-5-{[4-(trifluoromethyl)pyrimidin-2-yl]amino}phenyl)pyridin-3-yl]butan-2-one] | < 100 nM
6 | Cc1cc(Nc2nccc(C(F)(F)F)n2)cc(-c2ccc(C(C)(O)c3ccc(C(N)=O)cc3)nc2)c1 (stereo not shown) [Example 12.4, 4-{1-hydroxy-1-[5-(3-methyl-5-{[4-(trifluoromethyl)pyrimidin-2-yl]amino}phenyl)pyridin-2-yl]ethyl}benzamide] | < 100 nM
7 | COc1ccnc(Nc2cc(C)cc(-c3ccc(N[C@H]4CC[C@H](C(=O)O)CC4)nc3)c2)n1 [Example 2.105, trans-4-[(5-{3-[(4-methoxypyrimidin-2-yl)amino]-5-methylphenyl}pyridin-2-yl)amino]cyclohexanecarboxylic acid] | < 100 nM
8 | Cc1cc(Nc2nccc(C(F)(F)F)n2)cc(-c2ccc(C#N)nc2)c1 [Example 2.46, 5-(3-methyl-5-{[4-(trifluoromethyl)pyrimidin-2-yl]amino}phenyl)pyridine-2-carbonitrile] | < 100 nM
9 | Cc1cc(Nc2nccc(C(F)(F)F)n2)cc(-c2cncc(C3(O)CCNCC3)c2)c1 [Example 9.7, 4-[5-(3-Methyl-5-{[4-(trifluoromethyl)pyrimidin-2-yl]amino}phenyl)pyridin-3-yl]piperidin-4-ol] | < 100 nM
10 | Cc1cc(Nc2nccc(C(F)(F)F)n2)cc(-c2ccc(C(=O)N3CCC[S+]([O-])CC3)nc2)c1 (stereo not shown) [Example 16.52, N-(3-methyl-5-{6-[(1-oxido-1,4-thiazepan-4-yl)carbonyl]pyridin-3-yl}phenyl)-4-(trifluoromethyl)pyrimidin-2-amine] | < 100 nM
11 | Cc1cc(Nc2nccc(C(F)(F)F)n2)cc(-c2ccnc(CCC(=O)O)c2)c1 [Example 2.133, 3-[4-(3-methyl-5-{[4-(trifluoromethyl)pyrimidin-2-yl]amino}phenyl)pyridin-2-yl]propanoic acid] | < 100 nM
12 | Cc1cc(Nc2nccc(C(F)(F)F)n2)cc(-c2ccc(N[C@@H](CC(N)=O)C(=O)O)nc2)c1 [Example 7.94, N~2~-[5-(3-methyl-5-{[4-(trifluoromethyl)pyrimidin-2-yl]amino}phenyl)pyridin-2-yl]-L-asparagine] | < 100 nM
13 | CCOC(=O)CCc1ccc(-c2cccc(Nc3nccc(C(F)(F)F)n3)c2)cn1 [Example 2.77, ethyl 3-[5-(3-{[4-(trifluoromethyl)pyrimidin-2-yl]amino}phenyl)pyridin-2-yl]propanoate] | 100 to 1000 nM
14 | COCCNc1cncc(-c2cc(C)cc(Nc3nccc(C(F)(F)F)n3)c2)c1 [Example 15.1, N-(3-{5-[(2-Methoxyethyl)amino]pyridin-3-yl}-5-methylphenyl)-4-(trifluoromethyl)pyrimidin-2-amine] | < 100 nM
15 | COCC1CCN(c2cc(-c3cc(C)cc(Nc4nccc(C(F)(F)F)n4)c3)ccn2)C1 (stereo not shown) [Example 15.77, N-(3-{2-[3-(methoxymethyl)pyrrolidin-1-yl]pyridin-4-yl}-5-methylphenyl)-4-(trifluoromethyl)pyrimidin-2-amine] | 100 to 1000 nM
16 | Cc1cc(Nc2nccc(C(F)(F)F)n2)cc(-c2ccc(CN3CCCC3=O)nc2)c1 [Example 14.1, 1-{[5-(3-Methyl-5-{[4-(trifluoromethyl)pyrimidin-2-yl]amino}phenyl)pyridin-2-yl]methyl}pyrrolidin-2-one] | < 100 nM
17 | Cc1cc(Nc2nccc(C(F)(F)F)n2)cc(-c2ccc(C(C)O)nc2)c1 (stereo not shown) [Example 2.138, 1-[5-(3-Methyl-5-{[4-(trifluoromethyl)pyrimidin-2-yl]amino}phenyl)pyridin-2-yl]ethanol] | < 100 nM

Row | Structure (SMILES) | IC50
18 | Cc1cc(Nc2nccc(C(F)(F)F)n2)cc(-c2ccnc(NCCC(N)=O)c2)c1 [Example 15.59, N~3~-[4-(3-methyl-5-{[4-(trifluoromethyl)pyrimidin-2-yl]amino}phenyl)pyridin-2-yl]-beta-alaninamide] | < 100 nM
19 | OCCN(CCO)c1cccc(-c2cc(Nc3nccc(C(F)(F)F)n3)cc(N3CCOCC3)c2)n1 [Example 1.4, 2,2′-{[6-(3-morpholin-4-yl-5-{[4-(trifluoromethyl)pyrimidin-2-yl]amino}phenyl)pyridin-2-yl]imino}diethanol] | 100 to 1000 nM
20 | CCOC(=O)C1CCC(O)(c2ccc(-c3cc(C)cc(Nc4nccc(C(F)(F)F)n4)c3)cn2)CC1(C)C (stereo not shown) [Example 9.42, ethyl 4-hydroxy-2,2-dimethyl-4-[5-(3-methyl-5-{[4-(trifluoromethyl)pyrimidin-2-yl]amino}phenyl)pyridin-2-yl]cyclohexanecarboxylate] | 100 to 1000 nM
21 | Cc1cc(Nc2nccc(C(F)(F)F)n2)cc(-c2ccnc(NCCc3cnccn3)c2)c1 [Example 15.33, N-(3-methyl-5-{2-[(2-pyrazin-2-ylethyl)amino]pyridin-4-yl}phenyl)-4-(trifluoromethyl)pyrimidin-2-amine] | 100 to 1000 nM
22 | Cc1cc(Nc2nccc(C(F)(F)F)n2)cc(-c2ccnc(N3CC(C)NC(C)C3)c2)c1 (stereo not shown) [Example 15.85, N-{3-[2-(3,5-dimethylpiperazin-1-yl)pyridin-4-yl]-5-methylphenyl}-4-(trifluoromethyl)pyrimidin-2-amine] | < 100 nM
23 | Cc1cc(Nc2nccc(C(F)(F)F)n2)cc(-c2cncc(C3(O)CCC(O)CC3)c2)c1 (stereo not shown) [Example 9.76, 1-[5-(3-methyl-5-{[4-(trifluoromethyl)pyrimidin-2-yl]amino}phenyl)pyridin-3-yl]cyclohexane-1,4-diol] | < 100 nM
24 | Cc1cc(Nc2nccc(C3CC3)n2)cc(-c2cncc(C(O)(CO)CO)c2)c1 [Example 9.74, 2-(5-{3-[(4-cyclopropylpyrimidin-2-yl)amino]-5-methylphenyl}pyridin-3-yl)propane-1,2,3-triol] | 1000 to 10000 nM
25 | CC(=O)Nc1cc(Nc2nccc(C(F)(F)F)n2)cc(-c2ccc(N3CCNC(=O)CC3)nc2)c1 [Example 7.4, N-(3-[6-(5-oxo-1,4-diazepan-1-yl)pyridin-3-yl]-5-{[4-(trifluoromethyl)pyrimidin-2-yl]amino}phenyl)acetamide] | < 100 nM
26 | Cc1cc(Nc2nccc(C)n2)cc(-c2cc(CCC(=O)O)ccn2)c1 [Example 2.23, 3-(2-{3-methyl-5-[(4-methylpyrimidin-2-yl)amino]phenyl}pyridin-4-yl)propanoic acid] | < 100 nM
27 | CC(=O)NCCNc1cc(-c2cc(C)cc(Nc3nccc(C(F)(F)F)n3)c2)ccn1 [Example 15.54, N-(2-{[4-(3-methyl-5-{[4-(trifluoromethyl)pyrimidin-2-yl]amino}phenyl)pyridin-2-yl]amino}ethyl)acetamide] | < 100 nM
28 | Cc1cc(Nc2nccc(OC3CCNCC3)n2)cc(-c2cccnc2)c1 [Example 20.2, N-[3-methyl-5-(pyridin-3-yl)phenyl]-4-(piperidin-4-yloxy)pyrimidin-2-amine] | < 100 nM
29 | COc1ccnc(Nc2cc(C)cc(-c3ccnc(CCC(=O)O)c3)c2)n1 [Example 2.131, 3-(4-{3-[(4-methoxypyrimidin-2-yl)amino]-5-methylphenyl}pyridin-2-yl)propanoic acid] | < 100 nM
30 | CC(=O)N1CCN(c2cc(-c3cc(C)cc(Nc4nccc(C(F)(F)F)n4)c3)ccn2)CC1 [Example 15.23, 1-{4-[4-(3-Methyl-5-{[4-(trifluoromethyl)pyrimidin-2-yl]amino}phenyl)pyridin-2-yl]piperazin-1-yl}ethanone] | < 100 nM
31 | Cc1cc(Nc2nccc(C(F)(F)F)n2)cc(-c2cncc(C(C)(C)O)c2)c1 [Example 9.71, 2-[5-(3-methyl-5-{[4-(trifluoromethyl)pyrimidin-2-yl]amino}phenyl)pyridin-3-yl]propan-2-ol] | < 100 nM
32 | Cc1cc(Nc2nccc(C(F)(F)F)n2)cc(-c2ccnc(N3CC4CNC(CO)C4C3)c2)c1 (stereo not shown) [Example 15.84, {5-[4-(3-methyl-5-{[4-(trifluoromethyl)pyrimidin-2-yl]amino}phenyl)pyridin-2-yl]octahydropyrrolo[3,4-c]pyrrol-1-yl}methanol] | 1000 to 10000 nM
33 | CCOC(=O)CCc1cc(-c2cc(C)cc(Nc3nccc(C)n3)c2)ccn1 [Example 2.134, ethyl 3-(4-{3-methyl-5-[(4-methylpyrimidin-2-yl)amino]phenyl}pyridin-2-yl)propanoate] | 100 to 1000 nM
34 | Cc1cc(Nc2nccc(C(F)(F)F)n2)cc(-c2ccnc(NCC(C)(C)O)c2)c1 [Example 15.60, 2-methyl-1-{[4-(3-methyl-5-{[4-(trifluoromethyl)pyrimidin-2-yl]amino}phenyl)pyridin-2-yl]amino}propan-2-ol] | 100 to 1000 nM
